In brackets after ≈: the same amount, converted by molar mass. Like-named read-outs stand apart in the source and are kept apart here.
Columns and labels:
Lactobacillus plantarum = assay: Minimal Inhibitory Concentration (MIC), two-fold dilution series in 96 well microplate, antimicrobial used alone; format: cell-based; conditions: for MIC: Lactiplantibacillus plantarum; for Propionic Acid MIC (QB) used alone: sodium propionate per text
Excerpt: While there are various methods known to individuals skilled in the art for measuring levels of antimicrobial activity, in the following examples the endpoint used is known as the Minimal Inhibitory Concentration, or MIC. This is the lowest concentration of a substance or substances which can achieve complete inhibition of growth.
In order to determine the Minimal Inhibitory Concentration, a two-fold dilution series of the antimicrobial is constructed with the dilutions being made in growth media. The dilutions are made in a 96 well microplate such that each well has a final volume of 280 μl of media and antimicrobial. The first well has, for example, a concentration of 1000 μM antimicrobial, the second 500 μM, the third 250 μM, and so forth, with the 12th and final well in the row having no antimicrobial at all and serving as a positive growth control. After the dilution series is constructed the wells receive an inoculum of microbe suspended in growth media such that the final concentration of microbes in the well is ˜5×10^5 cfu/ml. In these examples the test microbe used is Lactobacillus plantarum. The cultures are incubated at 37° C. for 18-24 hours, and the wells scored as positive or negative for growth based on a visual examination for turbid wells, with turbidity being an indicator of growth.

fermentation = conditions: background statement; cited from earlier work
Weisella confusa = conditions: background statement; cited from earlier work

Work on `O=C(O)CC(O)(CC(=O)O)C(=O)O` [Citric Acid, citric acid] yielded an MIC (Lactobacillus plantarum; pH 5, Example 2, read-out: Citric Acid MIC (QA) used alone) of 25 mg/mL (≈ 130 mM), an MIC (Lactobacillus plantarum; pH 5, Example 4, read-out: Citric acid MIC (QA) used alone) of 25 mg/mL (≈ 130 mM) and an MIC (Lactobacillus plantarum; pH 6, Example 1, 37° C., 18-24 hours, read-out: Citric Acid MIC (QA) used alone) of 100 mg/mL (≈ 520 mM). For the same compound, the “Citric Acid MIC (QA) used alone” value (Lactobacillus plantarum; pH 5, Example 2) was 25000 ppm, the “Citric Acid MIC (QA) used alone” value (Lactobacillus plantarum; pH 5, Example 4) was 25000 ppm and the “Citric Acid MIC (QA) used alone” value (Lactobacillus plantarum; pH 6, Example 1, 37° C., 18-24 hours) was 100000 ppm. The “Citric Acid MIC (QA) used alone” value (Lactobacillus plantarum; pH 6, Example 3) was 100000 ppm and the “Citric Acid MIC (QA) used alone” value (Lactobacillus plantarum; pH 6, Example 3, listed as citric acid) was 100,000 ppm.
With `O=C([O-])c1ccccc1.[K+]` [Potassium Benzoate, potassium benzoate] the “Potassium benzoate MIC (QB) used alone” value (Lactobacillus plantarum; pH 5, Example 4, listed as Potassium benzoate) was 3125 ppm, the “Potassium benzoate MIC (QB) used alone” value (Lactobacillus plantarum; pH 5, Example 4, listed as potassium benzoate) was 3,125 ppm and the “Potassium benzoate MIC (QB) used alone” value (Lactobacillus plantarum; pH 6, Example 3) was 100000 ppm. The “Potassium benzoate MIC (QB) used alone” value (Lactobacillus plantarum; pH 6, Example 3, listed as potassium benzoate) was 100,000 ppm.
With `CCC(=O)[O-].[Na+]` [Sodium Propionate, sodium propionate] the “Sodium Propionate MIC (QB) used alone” value (Lactobacillus plantarum; pH 5, Example 2) was 100000 ppm, the “Sodium Propionate MIC (QB) used alone” value (Lactobacillus plantarum; pH 5, Example 2, listed as sodium propionate) was 100,000 ppm and the “Propionic Acid MIC (QB) used alone” value (Lactobacillus plantarum; pH 6, Example 1) was 100,000 ppm. For the same compound, the “Propionic Acid MIC (QB) used alone” value (Lactobacillus plantarum; pH 6, Example 1, listed as Propionic Acid) was 100000 ppm.
For Virginiamycin, the “concentration that will suppress fermentation” value (fermentation) is listed as “over 2 mg/L” and the “concentration required to inhibit growth of Weisella confusa” value (Weisella confusa) is listed as “over 25 mg/L”.

— patent US9555018B2, “Synergistic combinations of organic acid useful for controlling microoganisms in industrial processes” (Hercules Incorporated, priority 2013, dated 2017)
